{
  "source": "paper PMC6155296",
  "about": "“Screening of Peruvian Medicinal Plants for Tyrosinase Inhibitory Properties: Identification of Tyrosinase Inhibitors in Hypericum laricifolium Juss” (Molecules : A Journal of Synthetic Chemistry and Natural …, 2017)",
  "key": {"[1]": {"target": "T1, Mushroom tyrosinase (Agaricus bisporus, UniProt C7FF04)", "T1 sequence (C7FF04 2-392)": "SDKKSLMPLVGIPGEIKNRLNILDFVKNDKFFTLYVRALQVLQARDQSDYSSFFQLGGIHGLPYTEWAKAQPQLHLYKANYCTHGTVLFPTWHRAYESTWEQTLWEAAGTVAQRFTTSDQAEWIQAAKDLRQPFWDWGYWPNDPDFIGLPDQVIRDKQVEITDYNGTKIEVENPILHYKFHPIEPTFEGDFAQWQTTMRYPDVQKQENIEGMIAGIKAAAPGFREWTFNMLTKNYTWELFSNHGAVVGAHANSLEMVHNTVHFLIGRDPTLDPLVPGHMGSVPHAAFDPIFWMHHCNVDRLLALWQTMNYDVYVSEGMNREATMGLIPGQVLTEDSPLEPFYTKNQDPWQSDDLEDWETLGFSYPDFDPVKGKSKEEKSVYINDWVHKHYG", "T1 sequence (G1K3P4 1-150 partner)": "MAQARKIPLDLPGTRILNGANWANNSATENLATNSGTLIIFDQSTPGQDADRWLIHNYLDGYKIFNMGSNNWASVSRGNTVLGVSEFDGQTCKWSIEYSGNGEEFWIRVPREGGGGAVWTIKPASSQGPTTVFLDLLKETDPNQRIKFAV", "experiment": "Tyrosinase assay (spectrophotometry, L-tyrosine substrate)", "type": "biochemical"}, "[2]": {"target": "T1, Mushroom tyrosinase", "experiment": "Tyrosinase assay (spectrophotometry, L-tyrosine substrate)", "type": "biochemical", "description": "Tyrosinase activity was determined by spectrophotometry, with minor modifications. First, 80 μL of 0.1 M potassium phosphate buffer (pH 6.6), 20 μL of sample dissolved in dimethyl sulfoxide at the concentrations needed (final concentrations 100–500 μg/mL), and 50 μL of L-tyrosine buffer (1.5 mM) solutions were mixed. Then, 50 μL of mushroom tyrosinase solution (200 unit/mL in phosphate buffer) was added to each mixture, which was then incubated at 25 °C for 15 min.\nThe results were expressed as mean ± standard deviation (SD), and were repeated three to five times. The inhibitory concentration (IC50) was calculated by log-Probit analysis.", "remark": "listed apart in the source"}, "[3]": {"test_system": "cyclooxygenase-1 (COX-1)", "parameters": "method as in PMID 14646327", "details": "in vitro; cited from earlier work"}},
  "note": "Read-outs that look alike come from different tables or passages of the source.",
  "data": [
    {"smiles": "OC[C@H]1O[C@@H](Oc2ccc(O)cc2)[C@H](O)[C@@H](O)[C@@H]1O", "note": "[Arbutin, arbutin, reference compound]", "values": [
      {"measurement": "inhibition at 10 µg/mL", "setting": "[1]", "value": "13.7 ± 1.8", "unit": "%"},
      {"measurement": "inhibition at 50 µg/mL", "setting": "[1]", "value": "63.8 ± 0.1", "unit": "%"},
      {"measurement": "inhibition at 100 µg/mL", "setting": "[2]", "value": "86 ± 1.6", "unit": "%"},
      {"measurement": "inhibition at 500 µg/mL", "setting": "[2]", "value": "98.2 ± 0.9", "unit": "%"},
      {"measurement": "inhibition at 500 µg/mL", "setting": "[2]; read-out: Inhibition % (500 μg/mL)", "value": "92.3 ± 2.2", "unit": "%"}
    ]},
    {"smiles": "O=C(O)/C=C/c1ccc(O)c(O)c1", "note": "[Caffeic acid (5), caffeic acid]", "values": [
      {"measurement": "inhibition at 100 µg/mL", "setting": "[2]; 100 μg/mL, Table 4, read-out: Inhibition (%)", "value": "< 1", "unit": "%"}
    ]},
    {"smiles": "O=C(/C=C/c1ccc(O)c(O)c1)O[C@@H]1C[C@](O)(C(=O)O)C[C@@H](O)[C@H]1O", "note": "[Chlorogenic acid (3), chlorogenic acid]", "values": [
      {"measurement": "inhibition at 100 µg/mL", "setting": "[2]", "value": "< 1", "unit": "%"}
    ]},
    {"smiles": "O=C(O)[C@H]1O[C@@H](Oc2c(-c3ccc(O)cc3)oc3cc(O)cc(O)c3c2=O)[C@H](O)[C@@H](O)[C@@H]1O", "note": "[Kaempferol 3-O-glucuronide (6), kaempferol 3-O-glucuronide]", "values": [
      {"measurement": "inhibition at 100 µg/mL", "setting": "[2]", "value": "< 1", "unit": "%"}
    ]},
    {"smiles": "O=c1c(O)c(-c2ccc(O)cc2)oc2cc(O)cc(O)c12", "note": "[Kaempferol (8), kaempferol]", "values": [
      {"measurement": "inhibition at 100 µg/mL", "setting": "[2]", "value": "30 ± 1.97", "unit": "%"}
    ]},
    {"smiles": "O=C(O)c1ccc(O)c(O)c1", "note": "[Protocatechuic acid (1), protocatechuic acid]", "values": [
      {"measurement": "inhibition at 100 µg/mL", "setting": "[2]", "value": "< 1", "unit": "%"}
    ]},
    {"smiles": "O=c1c(O)c(-c2ccc(O)c(O)c2)oc2cc(O)cc(O)c12", "note": "[Quercetin (7), quercetin]", "values": [
      {"measurement": "Inhibition (%)", "setting": "[2]; 100 μg/mL, Table 4", "value": "99.7 ± 0.28", "unit": "%"},
      {"measurement": "Inhibition (%)", "setting": "[2]; 100 μg/mL, Table 4, listed as quercetin", "value": "over 95%"},
      {"measurement": "inhibition of cyclooxygenase-1 (COX-1)", "setting": "[3]", "value": "52% ± 2"}
    ]},
    {"smiles": "COc1cc(C(=O)O)ccc1O", "note": "[Vanilic acid (4), vanillic acid]", "values": [
      {"measurement": "inhibition at 100 µg/mL", "setting": "[2]", "value": "< 1", "unit": "%"}
    ]},
    {"smiles": "O=C(O)c1ccc(O)cc1", "note": "[p-Hydroxybenzoic acid (2), p-hydroxybenzoic acid]", "values": [
      {"measurement": "inhibition at 100 µg/mL", "setting": "[2]", "value": "8.3 ± 4.03", "unit": "%"}
    ]}
  ]
}
